Data set [1] deals with transporters. Details: method as in earlier work. The note with it: known transporter targets, per category of inhibited transporters, cited from earlier work.
Data set [2] deals with T1, hSGLT2 (Homo sapiens, UniProt P31639).
T1 sequence (P31639 1-672): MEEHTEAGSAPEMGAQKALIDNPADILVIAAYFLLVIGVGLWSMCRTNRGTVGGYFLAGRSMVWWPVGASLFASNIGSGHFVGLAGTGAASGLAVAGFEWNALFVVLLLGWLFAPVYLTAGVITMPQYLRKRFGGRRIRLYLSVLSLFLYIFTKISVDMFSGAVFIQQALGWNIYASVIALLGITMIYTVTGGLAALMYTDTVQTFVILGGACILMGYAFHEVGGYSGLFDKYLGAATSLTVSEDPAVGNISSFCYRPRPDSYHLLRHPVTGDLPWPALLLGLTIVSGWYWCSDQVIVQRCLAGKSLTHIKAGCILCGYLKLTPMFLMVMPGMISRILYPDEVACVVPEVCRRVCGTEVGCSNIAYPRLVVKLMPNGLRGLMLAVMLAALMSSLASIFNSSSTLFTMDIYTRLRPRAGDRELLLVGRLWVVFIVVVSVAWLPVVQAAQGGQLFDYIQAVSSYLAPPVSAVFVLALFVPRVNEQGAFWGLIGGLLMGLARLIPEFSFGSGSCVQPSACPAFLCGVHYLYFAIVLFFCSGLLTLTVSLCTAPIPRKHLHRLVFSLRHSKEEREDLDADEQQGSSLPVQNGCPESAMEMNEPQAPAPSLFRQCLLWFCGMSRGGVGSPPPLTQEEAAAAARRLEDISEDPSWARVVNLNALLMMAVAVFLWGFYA
The data set can be described thus: SGLT2 inhibition assay for validation of screening hits and similar compounds (1‐NBD‐glucose uptake, CHO‐hSGLT2 cells). On the set-up: activity: dose or concentration left out as unconfirmed. The note with it: for IC50: 1‐NBD‐glucose uptake, CHO‐hSGLT2, mean of n biological replicates, or individual measurements where n=2, read-out: SGLT2‐IC50 Mean; for inhibition at 50 µM: mean inhibition with 50 μmol/L inhibitor; for remaining activity at 5 µM / remaining activity at 50 µM: 0.5 h, read-out: NORMALIZED SGLT2 ACTIVITY (%); for activity: compound, normalized 1-NBD-glucose uptake, CHO-hSGLT2 cells; for SGLT2/SGLT1 ACTIVITY RATIO 5 uM Mean: ratio of normalized SGLT2 to SGLT1 activity at 5 uM. In kind it is cell-based.

For data set [3], the target named is T2, SGLT1 (Homo sapiens, UniProt P13866).
T2 sequence (P13866 1-664): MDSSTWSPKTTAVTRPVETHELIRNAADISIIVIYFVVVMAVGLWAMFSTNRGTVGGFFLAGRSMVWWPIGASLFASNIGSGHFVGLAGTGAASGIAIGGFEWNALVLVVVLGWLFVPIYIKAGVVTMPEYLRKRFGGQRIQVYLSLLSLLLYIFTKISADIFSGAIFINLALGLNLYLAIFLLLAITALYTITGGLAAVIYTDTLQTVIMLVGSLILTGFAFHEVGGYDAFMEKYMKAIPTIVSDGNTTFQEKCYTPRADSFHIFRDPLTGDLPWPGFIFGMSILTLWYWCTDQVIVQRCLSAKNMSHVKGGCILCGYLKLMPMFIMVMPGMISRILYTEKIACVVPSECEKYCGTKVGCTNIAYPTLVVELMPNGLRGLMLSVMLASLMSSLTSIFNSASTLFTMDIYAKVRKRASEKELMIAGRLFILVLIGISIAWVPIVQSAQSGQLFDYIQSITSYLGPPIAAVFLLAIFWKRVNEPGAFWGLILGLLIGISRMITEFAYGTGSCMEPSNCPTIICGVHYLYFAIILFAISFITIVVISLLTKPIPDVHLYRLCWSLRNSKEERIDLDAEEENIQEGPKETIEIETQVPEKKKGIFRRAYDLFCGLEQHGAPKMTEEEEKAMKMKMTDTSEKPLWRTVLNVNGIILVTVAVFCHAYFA
The data set is described as follows: SGLT1 inhibition assay for validation of screening hits and similar compounds (1‐NBD‐glucose uptake, CHO‐hSGLT1 cells). Format: cell-based. On the set-up: activity: dose or concentration left out as unconfirmed. The note with it: for IC50: 1‐NBD‐glucose uptake, CHO‐hSGLT1, mean of n biological replicates, or individual measurements where n=2, read-out: SGLT1‐IC50 Mean; for SGLT1/2 inhibition stated in words: SGLT1 and/or SGLT2, discussion statements; for inhibition at 50 µM: mean inhibition with 50 μmol/L inhibitor, read-out: SGLT1 inhibition; for remaining activity at 5 µM / remaining activity at 50 µM: 0.5 h, read-out: NORMALIZED SGLT1 ACTIVITY (%); for activity: compound, normalized 1-NBD-glucose uptake, CHO-hSGLT1 cells.

Data set [4] concerns CHO‐hSGLT1/2 cells. The data set can be described thus: Cytotoxicity assay (ToxiLight, adenylate kinase leakage into CHO‐SGLT1/2 inhibition assay media).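 On all read-outs here: bioluminescent read-out of adenylate kinase released from lysed cells into the medium, given relative to DMSO vehicle control defined as 0%, higher meaning more cytolysis.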 On the set-up: CYTOTOXICITY / CY[…], mean / CYTOTOXICITY (% of vehicle control) Mean / CYTOTOXICITY, mean / CY[…] (% of vehicle control) Mean: dose or concentration left out as unconfirmed. Particulars: mean; for CY[…] 50 mM: at 50 mM (so in the source).

The values below come from publication PMC6664820, “Novel natural and synthetic inhibitors of solute carriers SGLT1 and SGLT2” (Pharmacology Research & Perspectives, 2019).

SMILES strings stand for the structures. Values joined by “and” are separate entries in the source; they are usually repeats but may differ in a detail not shown here. Equal entries are not always repeated. “Also recorded” adds a separate entry of the source. Structures can show the parent of a compound that is named as a salt. Where two headings read alike, the source gives them in different places.

For the compound `COc1ccc(CCN(C)CCCC(C#N)(c2ccc(OC)c(OC)c2)C(C)C)cc1OC` (stereo not shown) [verapamil], the “INHIBITED TRANSPORTERS” value in data set [1] (sodium (co-)transporters) is reported as “SLC6A4, SLC22A1, SLC22A4, SLC22A5”.

What is called IC50 is the concentration that gives 50% inhibition. In general, inhibition refers to the percentage by which the read-out fell short of the control. As for `CC(C)COCC(CN(Cc1ccccc1)c1ccccc1)N1CCCC1` (stereo not shown) [Bepridil, bepridil, reference compound], in data set [2], the IC50 is 14 µM and 50 µM produced 70% inhibition. In data set [3], the IC50 was found to be 10 µM, the “SGLT1/2 inhibition stated in words” value is recorded as “showed SGLT1/2 inhibition” and the inhibition at 50 µM was 74%. Further, in data set [1], the “INHIBITED TRANSPORTERS” value is reported as “CACNA1A, CACNA1H, CACNA2D2, KCNH2, KCNQ1, KCNH2”.

As to `CN1[C@@H]2CC[C@H]1C[C@@H](OC(c1ccccc1)c1ccccc1)C2` [benztropine], the “INHIBITED TRANSPORTERS” value in data set [1] was “SLC6A2, SLC6A3, SCN10A”.

`CCCN1CCCC[C@H]1C(=O)Nc1c(C)cccc1C` [ropivacaine, reference compound]: in data set [3], the “SGLT1/2 inhibition stated in words” value is “novel SGLT1/2 inhibitors” and the inhibition at 50 µM was 30%. Also, the “INHIBITED TRANSPORTERS” value in data set [1] was “SCN10A”.

As for `CCCCN1CCCCC1C(=O)Nc1c(C)cccc1C` (stereo not shown) [Bupivacaine, bupivacaine, reference compound], in data set [2], the IC50 stood at 43 µM. In addition, in data set [3], the IC50 came out at 23 µM, the “SGLT1/2 inhibition stated in words” value is given as “novel SGLT1/2 inhibitors” and the inhibition at 50 µM was 64%. In addition, in data set [1], the “INHIBITED TRANSPORTERS” value was “SCN10A”.

`C=C[C@H]1C[N@@]2CC[C@H]1C[C@@H]2[C@@H](O)c1ccnc2ccc(OC)cc12` [Quinidine, quinidine, reference compound]: in data set [2], the IC50 came out at 56 µM and the inhibition at 50 µM is 49%. Moreover, in data set [2] (mean, concentration not given), the remaining activity at 5 µM was 92% and the remaining activity at 50 µM is 51%. Further, in data set [3], the IC50 turned out to be 62 µM and the inhibition at 50 µM stood at 50%. Besides, in data set [3] (mean, concentration not given), the remaining activity at 5 µM stood at 93% and the remaining activity at 50 µM was 50%. Besides, in data set [1], the “INHIBITED TRANSPORTERS” value is recorded as “SLC22A1, SLC22A2, SLC22A5, SLCO1A2, SLC22A4; also recorded: SLC22A8, SLCO1B1”.

On to `CC(CN(C)C)CN1c2ccccc2CCc2ccccc21` (stereo not shown) [trimipramine, reference compound], for which, in data set [3], the “SGLT1/2 inhibition stated in words” value is “novel SGLT1/2 inhibitors” and the inhibition at 50 µM turned out to be 43%. In addition, in data set [1], the “INHIBITED TRANSPORTERS” value is listed as “SLC6A2, SLC6A3, SLC6A4”.

For `CCOC(=O)c1ccc(OC2OC(CO)C(O)C(O)C2O)cc1` (stereo not shown) [Clivicolide], the activity in data set [2] (mean) turned out to be 111%; in data set [3] (mean), 99%. Besides, in data set [2], the “SGLT2/SGLT1 ACTIVITY RATIO 5 uM Mean” value worked out at 1.1. The “CYTOTOXICITY (% of vehicle control) Mean” value in data set [4] is 12 % of vehicle control.

With `Oc1ccc(/C=C/c2cc(O)cc3c2[C@@H](c2cc(O)cc(O)c2)[C@H](c2ccc(O)cc2)O3)cc1` [(-)-e-Viniferin], in data set [2] (mean, concentration not given), the remaining activity at 5 µM turned out to be 107% and the remaining activity at 50 µM stood at 65%. Besides, in data set [3] (mean, concentration not given), the remaining activity at 5 µM was 106% and the remaining activity at 50 µM is 117%. This compound showed a CYTOTOXICITY in data set [4] of -9.

`C[C@@H]1O[C@@H](O[C@H]2[C@H](O[C@H]3CC[C@@]4(C)[C@@H](CC[C@]5(C)[C@@H]4CC=C4[C@@H]6CC(C)(C)CC[C@]6(C(=O)O[C@@H]6O[C@H](CO[C@@H]7O[C@H](CO)[C@@H](O)[C@H](O)[C@H]7O)[C@@H](O)[C@H](O)[C@H]6O)CC[C@]45C)[C@]3(C)CO)OC[C@H](O)[C@@H]2O)[C@H](O)[C@H](O)[C@H]1O` [Dipsacoside B]: in data set [2], the “SGLT2/SGLT1 ACTIVITY RATIO” value is 1.2 and 1.3; the remaining activity at 5 µM was 121%; the remaining activity at 50 µM was 121%. In data set [3], the remaining activity at 5 µM is 96% and the remaining activity at 50 µM came out at 104%. Also, in data set [4], the “CY[…] 50 mM” value is -12.

Regarding `CCCCN1CCCCC1C(=O)Nc1c(C)cccc1C` (stereo not shown) [Bupivacaine HCl monohydrate], the remaining activity at 5 µM in data set [2] (mean, concentration not given) came out at 72%; in data set [3] (mean, concentration not given), 68%. Also, the remaining activity at 50 µM in data set [2] (mean, concentration not given) came to 50%; in data set [3] (mean, concentration not given), 36%. The “CY[…] 50 mM” value in data set [4] is reported as -2.27.

As to `Oc1cc(O)cc(/C=C/c2ccc(O)cc2O)c1` [Oxyresveratrol], in data set [2] (mean, concentration not given), the remaining activity at 5 µM was determined as 109% and the remaining activity at 50 µM is 115%. In data set [3] (mean, concentration not given), the remaining activity at 5 µM came out at 105% and the remaining activity at 50 µM was 123%. In data set [4], this compound gave a CYTOTOXICITY of -89.

Regarding `Oc1cc(O)cc(/C=C/c2ccccc2)c1` [Pinosylvin], in data set [2] (mean, concentration not given), the remaining activity at 5 µM is 97% and the remaining activity at 50 µM came to 117%. In addition, in data set [3] (mean, concentration not given), the remaining activity at 5 µM worked out at 98% and the remaining activity at 50 µM turned out to be 155%. This compound also yielded a CYTOTOXICITY in data set [4] of -71.

For the compound `CC=C(C)C(=O)O[C@H]1[C@@H](OC(=O)CC(C)C)c2c(ccc3ccc(=O)oc23)OC1(C)C` [praeruptorin E], the activity in data set [2] (mean) is 123%; in data set [3] (mean), 73%. The “SGLT2/SGLT1 ACTIVITY RATIO 5 uM Mean” value in data set [2] came out at 1.7. For the same compound, the “SGLT2/SGLT1‐50μmol/L (ratio of SGLT2 to SGLT1 activities with 50 μmol/L inhibitor)” value in data set [3] was found to be 3.1. The “CYTOTOXICITY (% of vehicle control) Mean” value in data set [4] is reported as -1.25 % of vehicle control.

Consider `Oc1c(Br)cc(Cl)c2cccnc12` [7-Bromo-5-chloro-8-hydroxyquinoline], for which, in data set [2] (mean, concentration not given), the remaining activity at 5 µM was found to be 92% and the remaining activity at 50 µM came out at 78%. Moreover, in data set [3] (mean, concentration not given), the remaining activity at 5 µM was determined as 103% and the remaining activity at 50 µM worked out at 45%. Besides, the CYTOTOXICITY in data set [4] turned out to be 14.

Turning to `O=c1c(-c2ccc(O)cc2)coc2cc(O[C@@H]3O[C@H](CO)[C@@H](O)[C@H](O)[C@H]3O)ccc12` [Daidzin], the activity was found to be 102% in data set [2] (mean) and 97% in data set [3] (mean). In addition, in data set [2], the “SGLT2/SGLT1 ACTIVITY RATIO 5 uM Mean” value was found to be 1.0. Further, in data set [4], the “CYTOTOXICITY (% of vehicle control) Mean” value is recorded as -19 % of vehicle control.

As to `C=C[C@H]1C[N@@]2CC[C@H]1C[C@H]2[C@H](O)c1ccnc2ccc(OC)cc12` [quinine, reference compound], the remaining activity at 5 µM in data set [2] (mean, concentration not given) turned out to be 92%; in data set [3] (mean, concentration not given) it was 101%. For the same compound, the remaining activity at 50 µM in data set [2] (mean, concentration not given) is 66%; in data set [3] (mean, concentration not given), 76%. Moreover, the inhibition at 50 µM in data set [2] came to 34%; in data set [3], 24%. The “INHIBITED TRANSPORTERS” value in data set [1] is “SLC22A1, SLC22A2, SLC22A5, SLCO1A2, SLC22A4”.
